# Reference: article PMC9023544, “Ketone-selenoesters as potential anticancer and multidrug resistance modulation agents in 2D and 3D ovarian and breast cancer in vitro models” (Scientific Reports, 2022)
# System: ABC superfamily genes in MCF-7/PAX
# Test: Expression of genes encoding ABC transporters, qPCR
# Format: cell-based, human
# Method: Based on the fact that compounds K3, K4, K7 sensitized drug-resistant cell lines (HOC/ADR, MCF-7/PAX) and modulated ATPase activity of one from the ABC proteins (P-gp), we verified the potential of these compounds to affect ABC superfamily gene expression. The ovarian and breast cancer cell lines (parental cells and resistant sub-line) were analysed for the expression profile of genes encoding the ABC proteins in the previous works[18]–[20]. […] After 48 h, the effect of compounds alone or in the combination with cytostatics was observed (Supplementary Tables 1, Table 2).
# To determine the impact of selected compounds on the expression of genes encoding ABC transporter, HOC/ADR and MCF-7/PAX cells were seeded for 24 h into 5 cm Petri dishes with DMEM medium at the cell density 1 × 10^5 cells/mL. Afterwards, the cells were washed 1× with PBS and new fresh DMEM supplemented with K3, K4, and K7 (in concentration corresponding to their IC10 value) alone or combined with cytostatics (Adriamycin or paclitaxel in concentration corresponding to their IC25 value) was added. In the experiment, positive and negative control was also included (positive—untreated cells, negative—cells treated only with cytostatics). After 48 h exposure, the cells were washed once with PBS and released from the surface by using the above-mentioned trypsin–EDTA procedure. The enzyme reaction was stopped by medium addition and the cells were centrifuged (3200×g; 10 min, 4 °C). The supernatants were removed and before the next centrifugation, the pellets were resuspended in 1.5 mL of cooled PBS (5400×g; 10 min, 4 °C). After the second washing step, the cells were centrifuged another time (10,000×g; 3 min, 4 °C). Subsequently, 1 mL of Trizol (Invitrogen) was added to the pellets and the compounds were stored − 80 °C.
# The RNA concentration of selenoester treated samples was determined using QuantiT RiboGreen RNA Assay Kit and Infinite M200 plate reader (Tecan, Männedor, Switzerland). The cDNA was synthesized from 0.5 µg of total RNA by RevertAid First Strand Synthesis cDNA Kit (MBI Fermentas, Vilnius, Lithuania). To determine the quality of cDNA, the ubiquitin C gene fragment was amplified. The experiment was performed in 384-well block by using ViiA7 Real-Time PCR System (Life Technologies, Camarillo, California, United States). A master mix contained 0.25 µL of 20× TaqMan Gene Expression Assay, 1 µL of 5× HotFIREPol Probe qPCR Mix Plus, 1.75 µL of RNase free water and 2 µL of 8× diluted cDNA. The final reaction volume was 5 µL. The PCR parameters were as follows: initial hold (50 °C for 2 min), denaturation (95 °C for 10 min), followed by 45 cycles (denaturation at 95 °C for 15 s, annealing at 60 °C for 1 min). After each cycle, the fluorescent signal was determined. For each compound, duplicates were analysed and those with a standard deviation higher than 0.5 Ct were re-analysed. A quantitate real-time PCR was followed by MIQE guidelines. To compare the relative transcript levels of genes, the software REST 2009 (Qiagen, Hilden, Germany) was used.
# Table 2. Effect of selenoesters either on the expression of the ABC gene superfamily in paclitaxel-resistant breast cancer cell line (MCF-7/PAX).
# Gene expression of ABC transporters were estimated using comercial predesigned Taqman Gene Expression Assays (Life technologies). TaqMan Gene Expression Assays are based on 5´ nuclease chemistry, and each assay contains the primer and probe set for target of interest. Taqman assays IDs and GenBank Accession numbers of reference sequencies identifying their location and amplicon lengths are included in the Supplementary Table I. * Relative transcript levels (P-value ) in treated and non-treated cancer cell lines were compared using REST 2009 software.
compound,measurement,setting,value
CC(=O)C[Se]C(=O)c1ccc(C(C)(C)C)cc1 [K7],number of ABC genes with altered expression,,32
same,ABCA2 Expression Difference,"IC10 alone, 48 h",0.159
same,ABCA2 Treated vs. Untr.,"IC10 alone, 48 h",DOWN
same,ABCA3 Expression Difference,"IC10 alone, 48 h",0.376
same,ABCA3 Treated vs. Untr.,"IC10 alone, 48 h",DOWN
same,ABCA4 Expression Difference,"IC10 alone, 48 h",20.68
same,ABCA5 Expression Difference,"IC10 alone, 48 h",0.600
same,ABCA5 Treated vs. Untr.,"IC10 alone, 48 h",DOWN
same,ABCA7 Expression Difference,"IC10 alone, 48 h",0.384
same,ABCA7 Treated vs. Untr.,"IC10 alone, 48 h",DOWN
same,ABCA12 Expression Difference,"IC10 alone, 48 h",0.745
same,ABCA12 Treated vs. Untr.,"IC10 alone, 48 h",DOWN
same,ABCB1 Expression Difference,"IC10 alone, 48 h",0.361
same,ABCB1 Treated vs. Untr.,"IC10 alone, 48 h",DOWN
same,ABCB2 Expression Difference,"IC10 alone, 48 h",0.274
same,ABCB2 Treated vs. Untr.,"IC10 alone, 48 h",DOWN
same,ABCB3 Expression Difference,"IC10 alone, 48 h",0.164
same,ABCB3 Treated vs. Untr.,"IC10 alone, 48 h",DOWN
same,ABCB6 Expression Difference,"IC10 alone, 48 h",0.305
same,ABCB6 Treated vs. Untr.,"IC10 alone, 48 h",DOWN
same,ABCB7 Expression Difference,"IC10 alone, 48 h",0.131
same,ABCB7 Treated vs. Untr.,"IC10 alone, 48 h",DOWN
same,ABCB8 Expression Difference,"IC10 alone, 48 h",0.407
same,ABCB8 Treated vs. Untr.,"IC10 alone, 48 h",DOWN
same,ABCB9 Expression Difference,"IC10 alone, 48 h",0.340
same,ABCB9 Treated vs. Untr.,"IC10 alone, 48 h",DOWN
same,ABCB10 Expression Difference,"IC10 alone, 48 h",0.822
same,ABCB10 Treated vs. Untr.,"IC10 alone, 48 h",DOWN
same,ABCC1 Expression Difference,"IC10 alone, 48 h",0.238
same,ABCC1 Treated vs. Untr.,"IC10 alone, 48 h",DOWN
same,ABCC2 Expression Difference,"IC10 alone, 48 h",0.061
same,ABCC2 Treated vs. Untr.,"IC10 alone, 48 h",DOWN
same,ABCC3 Expression Difference,"IC10 alone, 48 h",15.69
same,ABCC4 Expression Difference,"IC10 alone, 48 h",0.213
same,ABCC4 Treated vs. Untr.,"IC10 alone, 48 h",DOWN
same,ABCC5 Expression Difference,"IC10 alone, 48 h",0.933
same,ABCC5 Treated vs. Untr.,"IC10 alone, 48 h",DOWN
same,ABCC6 Expression Difference,"IC10 alone, 48 h",0.424
same,ABCC6 Treated vs. Untr.,"IC10 alone, 48 h",DOWN
same,ABCC8 Expression Difference,"IC10 alone, 48 h",0.651
same,ABCC8 Treated vs. Untr.,"IC10 alone, 48 h",DOWN
same,ABCC10 Expression Difference,"IC10 alone, 48 h",0.170
same,ABCC10 Treated vs. Untr.,"IC10 alone, 48 h",DOWN
same,ABCD1 Expression Difference,"IC10 alone, 48 h",0.104
same,ABCD1 Treated vs. Untr.,"IC10 alone, 48 h",DOWN
same,ABCD3 Expression Difference,"IC10 alone, 48 h",0.247
same,ABCD3 Treated vs. Untr.,"IC10 alone, 48 h",DOWN
same,ABCD4 Expression Difference,"IC10 alone, 48 h",0.872
same,ABCD4 Treated vs. Untr.,"IC10 alone, 48 h",DOWN
same,ABCE1 Expression Difference,"IC10 alone, 48 h",0.505
same,ABCE1 Treated vs. Untr.,"IC10 alone, 48 h",DOWN
same,ABCF1 Expression Difference,"IC10 alone, 48 h",2.263
same,ABCF2 Expression Difference,"IC10 alone, 48 h",0.601
same,ABCF2 Treated vs. Untr.,"IC10 alone, 48 h",DOWN
same,ABCF3 Expression Difference,"IC10 alone, 48 h",0.484
same,ABCF3 Treated vs. Untr.,"IC10 alone, 48 h",DOWN
same,ABCG1 Expression Difference,"IC10 alone, 48 h",0.307
same,ABCG1 Treated vs. Untr.,"IC10 alone, 48 h",DOWN
same,ABCG2 Expression Difference,"IC10 alone, 48 h",0.207
same,ABCG2 Treated vs. Untr.,"IC10 alone, 48 h",DOWN
same,ABCG4 Expression Difference,"IC10 alone, 48 h",0.188
same,ABCG4 Treated vs. Untr.,"IC10 alone, 48 h",DOWN
same,decrease of expression of ABCB1 (P-gp) encoding gene,"IC10 alone, 48 h",64%
same,downregulation of expression of ABCC1 (MRP1),"IC10 alone, 48 h",76%
same,downregulation of expression of ABCG2,"IC10 alone, 48 h",80%
